For experiment [1], the target named is MDM2 (Homo sapiens, UniProt Q00987). Briefly: Competitive fluorescence polarization assay for MDM2. The conditions noted are these: competitive FP assay, MDM2; for pIC50: read-out: IC50 (MDM2); for pKi: read-out: Ki (MDM2). Type of experiment: binding. On the technique in general: Polarisation of emitted light reports the rotation of a fluorescent probe.
Experiment [2] deals with T1, MDMX (Homo sapiens, UniProt O15151).
T1 sequence (O15151 1-125): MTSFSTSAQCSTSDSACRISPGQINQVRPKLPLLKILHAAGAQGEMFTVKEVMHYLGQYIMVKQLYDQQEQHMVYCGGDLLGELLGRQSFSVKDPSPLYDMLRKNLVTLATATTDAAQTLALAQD
The experiment in a line: Competitive fluorescence polarization assay for MDMX. The conditions noted are these: competitive FP assay; for pIC50: read-out: IC50 (MDMX); for pKi: read-out: Ki (MDMX). Type of experiment: binding.

pIC50, pKi: −log10 of the molar value. Where a SMILES comes first, the peptide text is derived from it. Bridges are numbered along the chain shown (N, C = ends). [ ]: non-standard residue; d: D form. R8 = C=CCCCCCC[C@@](C)(N)C(=O)O; S5 = C=CCCC[C@](C)(N)C(=O)O; Nle = CCCC[C@H](N)C(=O)O

MDM2, sequence (Q00987 1-125): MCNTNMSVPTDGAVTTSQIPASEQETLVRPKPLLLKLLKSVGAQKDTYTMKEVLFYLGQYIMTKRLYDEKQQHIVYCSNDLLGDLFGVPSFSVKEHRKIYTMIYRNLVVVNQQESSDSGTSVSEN

As usually defined, the pIC50 is the IC50 on a negative log10 scale, so that one unit is a factor of ten. As usually defined, the pKi is the negative decadic logarithm of the Ki, by convention in mol/L. `CC[C@H](C)[C@H](NC(=O)[C@H](C)NC(=O)[C@H](C)NC(=O)[C@]1(C)CCCC=CCCCCCC[C@@](C)(NC(=O)[C@H](Cc2ccccc2)NC(=O)[C@@H](NC(=O)[C@H](CC(C)C)NC(C)=O)[C@@H](C)O)C(=O)N[C@@H](C)C(=O)N[C@@H](CCC(=O)O)C(=O)N[C@@H](Cc2c[nH]c3ccccc23)C(=O)N[C@@H](C)C(=O)N[C@@H](CCC(N)=O)C(=O)N[C@@H](CC(C)C)C(=O)N1)C(=O)N[C@H](C)C(N)=O` [compound 180] (Ac-LTF[R8]AEWAQL[S5]AAI[dA]-NH2; staple 4-11): in experiment [1], the pIC50 is 7.00 to 8.00 and the pKi is > 8.00. For the same molecule, in experiment [2], the pIC50 was 6.00 to 7.00 and the pKi was 7.00 to 8.00.
On to `CCCC[C@H](NC(=O)[C@H](C)NC(=O)[C@H](C)NC(=O)[C@]1(C)CCCC=CCCCCCC[C@@](C)(NC(=O)[C@H](Cc2ccccc2)NC(=O)[C@@H](NC(=O)[C@H](CC(C)C)NC(C)=O)[C@@H](C)O)C(=O)N[C@@H](C)C(=O)N[C@@H](Cc2ccc(O)cc2)C(=O)N[C@@H](Cc2c[nH]c3ccccc23)C(=O)N[C@@H](C)C(=O)N[C@@H](CCC(N)=O)C(=O)N[C@@H](CC(C)C)C(=O)N1)C(=O)N[C@@H](C)C(=O)NCCC(C)(C)C` (single isomer, unassigned) [compound 425], for which, in experiment [1], the pIC50 was 7.00 to 8.00 and the pKi was 7.00 to 8.00. In experiment [2], the pIC50 is 7.00 to 8.00 and the pKi was 7.00 to 8.00.
Turning to `CC[C@H](C)[C@H](NC(C)=O)C(=O)N[C@H](C(=O)N[C@@H](Cc1ccccc1)C(=O)N[C@]1(C)CCCCCCC=CCCC[C@@](C)(C(=O)N[C@@H](C)C(=O)N[C@@H](Cc2c[nH]cn2)C(=O)N[C@@H](Cc2ccccc2)C(=O)N[C@@H](C)C(N)=O)NC(=O)[C@H](CC(C)C)NC(=O)[C@H](CCC(N)=O)NC(=O)[C@H](C(C)C)NC(=O)[C@H](Cc2c[nH]c3ccccc23)NC(=O)[C@H](Cc2c[nH]cn2)NC(=O)[C@H](CCC(=O)O)NC1=O)[C@@H](C)O` (single isomer, unassigned) [compound 194], in experiment [1], the pIC50 is 7.00 to 8.00 and the pKi was > 8.00. Further, in experiment [2], the pIC50 is 6.00 to 7.00 and the pKi was 6.00 to 7.00.
With `CCCC[C@H](NC(=O)[C@H](Cc1c[nH]c2ccccc12)NC(=O)[C@H](C)NC(=O)[C@]1(C)CCCC=CCCCCCC[C@@](C)(NC(=O)[C@H](Cc2ccccc2)NC(=O)[C@@H](NC(=O)[C@H](CCC(=O)O)NC(C)=O)[C@@H](C)O)C(=O)N[C@@H](C)C(=O)N[C@@H](Cc2ccc(O)cc2)C(=O)N[C@@H](Cc2c[nH]c3ccccc23)C(=O)N[C@@H](C)C(=O)N[C@@H](CCC(N)=O)C(=O)N[C@@H](CC(C)C)C(=O)N1)C(=O)N[C@H](C)C(N)=O` [compound 276] (Ac-ETF[R8]AYWAQL[S5]AW[Nle][dA]-NH2; staple 4-11), in experiment [1], the pIC50 is 7.00 to 8.00 and the pKi is > 8.00. Also, in experiment [2], the pIC50 is 7.00 to 8.00 and the pKi was > 8.00.
With `CCCC[C@H](NC(=O)[C@H](C)NC(=O)[C@H](C)NC(=O)[C@]1(C)CCCC=CCCCCCC[C@@](C)(NC(=O)[C@H](Cc2ccccc2)NC(=O)[C@@H](NC(=O)[C@H](CC(C)C)NC(C)=O)[C@@H](C)O)C(=O)N[C@@H](C)C(=O)N(C)[C@@H](Cc2ccc(O)cc2)C(=O)N[C@@H](Cc2c[nH]c3ccccc23)C(=O)N[C@@H](C)C(=O)N[C@@H](CCC(N)=O)C(=O)N[C@@H](CC(C)C)C(=O)N1)C(=O)N[C@@H](C)C(N)=O` (single isomer, unassigned) [compound 384], in experiment [1], the pIC50 was 6.00 to 7.00 and the pKi is 6.00 to 7.00. Also, in experiment [2], the pIC50 is < 6.00 and the pKi is < 6.00.
